From ChEMBL document CHEMBL1201862, “PubChem BioAssay data set” (2004)
Active and inactive are the calls of the source.

Columns and labels:
[1] = system: Streptococcus sp. 'group A'; assay: Streptococcus pyogenes SK(-)GAS viability under kanamycin – luminescence, BacTiterGlo, confirmation, counter-screen for streptokinase expression inhibitor project, dose response (AID 1900); type: functional, organism-based
[2] = target: DNA dC->dU-editing enzyme APOBEC-3A (Homo sapiens, UniProt P31941); assay: A3A deaminase inhibition for selectivity – biochemical, dose response (AID 504722); type: functional
Streptococcus = assay: GAS UMAA2166 growth inhibition – luminescence, BacTiterGlo, counter-screen for streptokinase expression inhibitor project, dose response (AID 1915); type: functional, organism-based;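 note: potency for reduction of bacterial viability or growth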
[3] = target: DNA dC->dU-editing enzyme APOBEC-3G (Homo sapiens, UniProt Q9HC16); assay: Dose Response confirmation of small molecule APOBEC3G DNA Deaminase Inhibitors via a fluorescence-based single-stranded DNA deaminase assay. [Related pubchem assays (depositor defined):AID493012, AID493028]; type: functional
[4] = target: Eukaryotic translation initiation factor 4E (Mus musculus, UniProt P63073); assay: blockers of eIF4G binding by eIF4E – biochemical, TR-FRET, dose response (AID 855); type: functional;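 note: potency for disrupting eIF4E binding to eIF4GI seen as loss of FRET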
Streptokinase A = target: T1, Streptokinase A (Streptococcus pyogenes serotype M1, UniProt P10520); assay: viability-normalized secreted streptokinase activity reduction – plasminogen activation absorbance, OD405, dose response (AID 1914); type: functional, Streptococcus pyogenes M1 GAS;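 note: secreted streptokinase activity via plasminogen activation per viability signal from cell pellet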
T1 sequence (P10520 whole entry): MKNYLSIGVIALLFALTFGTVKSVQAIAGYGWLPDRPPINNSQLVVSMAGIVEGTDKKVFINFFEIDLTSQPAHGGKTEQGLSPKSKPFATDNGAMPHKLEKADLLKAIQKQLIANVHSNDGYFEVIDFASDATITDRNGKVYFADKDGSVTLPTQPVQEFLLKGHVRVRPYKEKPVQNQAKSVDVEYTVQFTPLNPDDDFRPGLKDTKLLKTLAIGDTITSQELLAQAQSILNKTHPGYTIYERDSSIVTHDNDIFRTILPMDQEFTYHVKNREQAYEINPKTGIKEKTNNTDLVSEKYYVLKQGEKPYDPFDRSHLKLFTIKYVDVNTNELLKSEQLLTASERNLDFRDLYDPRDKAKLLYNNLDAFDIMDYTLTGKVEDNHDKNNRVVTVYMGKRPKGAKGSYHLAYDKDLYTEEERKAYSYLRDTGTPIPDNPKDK

Bcl-2-like protein 10 = target: T2, Bcl-2-like protein 10 (Homo sapiens, UniProt Q9HD36); assay: Bcl-B/TR3 peptide binding disruption – biochemical, fluorescence polarization, FITC-TR3 peptide, selectivity assay for Bfl-1 inhibitor project, primary screen (AID 748);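 note: fluorescence polarization from a fluorescein-labelled TR3 peptide binding purified Bcl-B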
T2 sequence (Q9HD36 whole entry): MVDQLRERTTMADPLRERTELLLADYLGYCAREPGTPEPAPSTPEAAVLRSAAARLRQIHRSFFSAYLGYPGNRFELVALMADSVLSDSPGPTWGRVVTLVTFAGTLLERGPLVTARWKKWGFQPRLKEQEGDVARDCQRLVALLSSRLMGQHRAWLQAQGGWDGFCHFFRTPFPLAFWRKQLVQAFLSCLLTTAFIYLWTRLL

[5] = target: T3, Ubiquitin-conjugating enzyme E2 N (Homo sapiens, UniProt P61088); type: functional;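 note: Dose-response confirmation in a TR-FRET assay detecting UBC13-driven polyubiquitin chain formation, inhibition measured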
T3 sequence (P61088 whole entry): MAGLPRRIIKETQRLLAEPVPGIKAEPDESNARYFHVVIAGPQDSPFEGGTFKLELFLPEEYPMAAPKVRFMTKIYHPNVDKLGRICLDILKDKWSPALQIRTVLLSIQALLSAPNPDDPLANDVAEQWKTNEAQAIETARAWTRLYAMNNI

[6] = target: T4, Alkaline phosphatase, tissue-nonspecific isozyme (Homo sapiens, UniProt P05186); assay: potency against alkaline phosphatase TNAP – biochemical, luminescent, dose response, SAR follow-up (AID 1056)
T4 sequence (P05186 whole entry): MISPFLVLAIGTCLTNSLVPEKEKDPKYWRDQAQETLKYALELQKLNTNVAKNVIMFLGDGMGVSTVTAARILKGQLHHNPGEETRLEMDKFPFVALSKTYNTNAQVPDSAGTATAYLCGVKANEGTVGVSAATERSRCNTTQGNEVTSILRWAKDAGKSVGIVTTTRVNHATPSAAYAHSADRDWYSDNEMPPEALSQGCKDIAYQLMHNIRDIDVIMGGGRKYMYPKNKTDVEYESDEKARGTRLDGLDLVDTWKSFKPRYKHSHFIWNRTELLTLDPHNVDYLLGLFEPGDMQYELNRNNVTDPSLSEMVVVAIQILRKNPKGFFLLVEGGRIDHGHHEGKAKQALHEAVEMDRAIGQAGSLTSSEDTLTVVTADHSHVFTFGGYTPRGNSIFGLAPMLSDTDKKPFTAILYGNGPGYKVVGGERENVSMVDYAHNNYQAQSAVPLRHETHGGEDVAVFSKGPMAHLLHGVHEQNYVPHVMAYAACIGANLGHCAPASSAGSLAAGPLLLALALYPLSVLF

[7] = target: Glyceraldehyde-3-phosphate dehydrogenase (Homo sapiens, UniProt P04406)
[8] = target: T5, RNA-binding protein pos-1 (Caenorhabditis elegans, UniProt G5EF15); assay: disruptors of C. elegans POS-1 RNA interaction – biochemical, fluorescence polarization, dose response (AID 1964);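 note: purified POS-1 fused to maltose binding protein made in E. coli; potency of compounds blocking POS-1 binding to fluorescent RNA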
T5 sequence (G5EF15 whole entry): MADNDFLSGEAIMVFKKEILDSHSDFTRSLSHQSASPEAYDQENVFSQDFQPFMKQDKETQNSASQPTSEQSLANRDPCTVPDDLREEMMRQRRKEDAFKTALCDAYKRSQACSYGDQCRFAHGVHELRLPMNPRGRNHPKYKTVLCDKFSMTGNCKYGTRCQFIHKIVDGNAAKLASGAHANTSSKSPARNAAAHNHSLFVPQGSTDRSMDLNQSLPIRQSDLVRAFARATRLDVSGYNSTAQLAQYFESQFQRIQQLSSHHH

[9] = target: T6, Apoptotic protease-activating factor 1 (Homo sapiens, UniProt O14727); type: functional
T6 sequence (O14727 whole entry): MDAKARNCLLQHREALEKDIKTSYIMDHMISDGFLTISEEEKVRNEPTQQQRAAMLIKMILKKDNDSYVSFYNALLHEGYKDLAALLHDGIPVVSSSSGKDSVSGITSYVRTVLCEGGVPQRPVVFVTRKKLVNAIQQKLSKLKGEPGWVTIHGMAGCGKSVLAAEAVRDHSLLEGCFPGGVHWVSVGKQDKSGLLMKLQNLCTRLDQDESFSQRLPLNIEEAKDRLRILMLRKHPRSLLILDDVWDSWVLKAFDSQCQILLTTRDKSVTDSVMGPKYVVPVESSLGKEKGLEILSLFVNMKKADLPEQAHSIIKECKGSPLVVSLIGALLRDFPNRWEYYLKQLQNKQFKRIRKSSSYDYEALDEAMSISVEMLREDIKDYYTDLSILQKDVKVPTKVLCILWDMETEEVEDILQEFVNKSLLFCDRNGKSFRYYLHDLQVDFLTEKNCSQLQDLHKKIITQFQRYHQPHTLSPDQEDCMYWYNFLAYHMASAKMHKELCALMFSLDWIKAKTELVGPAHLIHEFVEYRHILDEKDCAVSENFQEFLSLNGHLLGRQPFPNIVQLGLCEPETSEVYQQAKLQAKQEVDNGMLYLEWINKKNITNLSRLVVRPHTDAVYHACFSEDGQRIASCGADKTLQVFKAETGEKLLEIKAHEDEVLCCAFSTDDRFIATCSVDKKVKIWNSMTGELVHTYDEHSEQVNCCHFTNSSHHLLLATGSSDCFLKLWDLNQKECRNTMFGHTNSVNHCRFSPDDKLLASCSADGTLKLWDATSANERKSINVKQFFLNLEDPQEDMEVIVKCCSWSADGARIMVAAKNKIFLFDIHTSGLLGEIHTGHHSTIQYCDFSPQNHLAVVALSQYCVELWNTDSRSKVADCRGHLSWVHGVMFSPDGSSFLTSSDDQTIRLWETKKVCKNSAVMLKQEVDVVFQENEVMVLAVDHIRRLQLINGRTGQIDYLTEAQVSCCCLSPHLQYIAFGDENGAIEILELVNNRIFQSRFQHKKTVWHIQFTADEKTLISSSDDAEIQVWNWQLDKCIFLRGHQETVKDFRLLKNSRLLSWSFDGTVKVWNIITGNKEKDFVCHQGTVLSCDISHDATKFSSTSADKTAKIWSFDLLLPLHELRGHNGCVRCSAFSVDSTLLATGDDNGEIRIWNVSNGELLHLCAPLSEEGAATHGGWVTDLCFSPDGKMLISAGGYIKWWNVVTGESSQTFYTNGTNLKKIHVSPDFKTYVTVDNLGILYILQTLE

[10] = target: T7, Zinc finger protein mex-5 (Caenorhabditis elegans, UniProt Q9XUB2); assay: potency of MEX-5 RNA-binding blockers – biochemical, C. elegans, fluorescence polarization, dose response (AID 1960)
T7 sequence (Q9XUB2 whole entry): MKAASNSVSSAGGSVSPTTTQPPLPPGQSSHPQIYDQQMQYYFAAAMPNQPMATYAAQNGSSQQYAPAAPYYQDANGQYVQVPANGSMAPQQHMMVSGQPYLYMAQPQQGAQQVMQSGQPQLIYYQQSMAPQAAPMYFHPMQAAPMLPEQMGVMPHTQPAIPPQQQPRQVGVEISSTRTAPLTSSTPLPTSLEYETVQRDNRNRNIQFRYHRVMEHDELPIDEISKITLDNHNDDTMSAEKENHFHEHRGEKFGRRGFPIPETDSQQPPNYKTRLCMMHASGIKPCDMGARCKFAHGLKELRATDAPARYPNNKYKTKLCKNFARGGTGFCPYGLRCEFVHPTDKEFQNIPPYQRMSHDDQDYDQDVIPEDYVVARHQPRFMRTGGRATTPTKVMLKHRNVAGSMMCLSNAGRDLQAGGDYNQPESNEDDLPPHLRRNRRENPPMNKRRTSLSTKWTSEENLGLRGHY

[11] = target: Glucose-6-phosphate 1-dehydrogenase (Homo sapiens, UniProt P11413); assay: inhibition of Homo sapiens G6PD, dose series – biochemical, fluorescence, selectivity assay for P. falciparum G6PD inhibitor project, dose response (AID 504792); type: functional
Hexokinase HKDC1 = target: T8, Hexokinase HKDC1 (Homo sapiens, UniProt Q2TB90); assay: inhibition of HKDC1 glucose phosphorylation – biochemical, W721R variant, dose response (AID 504729); type: functional
T8 sequence (Q2TB90 whole entry): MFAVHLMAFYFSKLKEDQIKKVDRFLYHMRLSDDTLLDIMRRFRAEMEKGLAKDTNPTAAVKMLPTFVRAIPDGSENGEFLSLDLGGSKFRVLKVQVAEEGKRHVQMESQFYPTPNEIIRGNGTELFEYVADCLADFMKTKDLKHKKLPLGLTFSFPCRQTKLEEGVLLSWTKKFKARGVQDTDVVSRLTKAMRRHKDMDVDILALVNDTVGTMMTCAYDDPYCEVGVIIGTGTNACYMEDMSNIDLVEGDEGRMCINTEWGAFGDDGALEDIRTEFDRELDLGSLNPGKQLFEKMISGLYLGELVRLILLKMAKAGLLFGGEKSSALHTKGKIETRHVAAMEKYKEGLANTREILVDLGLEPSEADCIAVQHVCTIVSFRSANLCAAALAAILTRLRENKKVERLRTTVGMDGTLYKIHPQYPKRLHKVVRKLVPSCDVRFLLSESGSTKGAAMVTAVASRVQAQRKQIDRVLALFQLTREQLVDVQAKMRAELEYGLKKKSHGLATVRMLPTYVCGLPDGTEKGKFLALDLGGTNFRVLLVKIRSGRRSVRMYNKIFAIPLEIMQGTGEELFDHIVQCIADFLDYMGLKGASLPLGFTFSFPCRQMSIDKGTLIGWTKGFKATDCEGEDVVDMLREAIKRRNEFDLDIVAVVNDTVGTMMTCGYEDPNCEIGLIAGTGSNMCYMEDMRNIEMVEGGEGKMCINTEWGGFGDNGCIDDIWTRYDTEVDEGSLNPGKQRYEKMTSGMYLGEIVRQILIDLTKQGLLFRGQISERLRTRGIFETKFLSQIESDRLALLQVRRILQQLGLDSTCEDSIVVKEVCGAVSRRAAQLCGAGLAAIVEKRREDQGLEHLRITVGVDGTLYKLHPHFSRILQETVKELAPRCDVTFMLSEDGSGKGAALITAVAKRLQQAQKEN

Nonstructural protein 1 = Nonstructural protein 1 (Influenza A virus, UniProt Q194T2); type: functional, Influenza A virus (A/California/07/2009(H1N1))
H9c2 = assay: cells; type: functional, cell-based; conditions: Rattus norvegicus, H9c2, Myocardium;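 note: confirmatory concentration-response retest of ultra-high-throughput screening hits for modulation of myocardial damage; cell death induced by hydrogen peroxide oxidative stress; compound pretreatment for 60 min then peroxide exposure for 2 h; potency is for protecting the cells against peroxide damage rather than for killing them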

Chain of DNA dC->dU-editing enzyme APOBEC-3A (P31941 whole entry): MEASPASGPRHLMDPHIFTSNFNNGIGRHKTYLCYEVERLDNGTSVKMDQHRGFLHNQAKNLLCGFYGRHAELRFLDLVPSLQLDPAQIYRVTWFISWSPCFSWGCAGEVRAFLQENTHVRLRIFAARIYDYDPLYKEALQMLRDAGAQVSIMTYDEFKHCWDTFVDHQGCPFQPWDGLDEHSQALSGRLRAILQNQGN
Chain of Glyceraldehyde-3-phosphate dehydrogenase (P04406 whole entry, the tested form may be a part): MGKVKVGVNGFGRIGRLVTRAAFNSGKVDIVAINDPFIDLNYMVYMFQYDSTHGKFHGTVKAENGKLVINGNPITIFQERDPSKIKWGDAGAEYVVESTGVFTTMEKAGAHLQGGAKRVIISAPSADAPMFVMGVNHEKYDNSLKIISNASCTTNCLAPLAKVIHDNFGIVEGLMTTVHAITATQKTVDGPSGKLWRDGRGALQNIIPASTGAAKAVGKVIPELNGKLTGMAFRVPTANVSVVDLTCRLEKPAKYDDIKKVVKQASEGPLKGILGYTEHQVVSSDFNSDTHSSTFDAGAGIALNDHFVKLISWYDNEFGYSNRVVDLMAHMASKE
Chain of DNA dC->dU-editing enzyme APOBEC-3G (Q9HC16 whole entry): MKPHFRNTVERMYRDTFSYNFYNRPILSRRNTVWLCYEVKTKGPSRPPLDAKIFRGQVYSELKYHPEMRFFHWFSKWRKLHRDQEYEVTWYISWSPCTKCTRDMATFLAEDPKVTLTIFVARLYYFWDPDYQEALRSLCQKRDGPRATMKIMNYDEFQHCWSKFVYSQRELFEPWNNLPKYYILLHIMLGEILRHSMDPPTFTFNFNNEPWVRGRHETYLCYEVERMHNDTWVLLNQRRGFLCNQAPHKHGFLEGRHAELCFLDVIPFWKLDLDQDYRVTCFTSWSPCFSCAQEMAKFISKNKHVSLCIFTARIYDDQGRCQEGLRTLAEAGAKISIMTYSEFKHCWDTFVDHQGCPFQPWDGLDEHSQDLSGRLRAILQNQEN
Chain of Eukaryotic translation initiation factor 4E (P63073 whole entry): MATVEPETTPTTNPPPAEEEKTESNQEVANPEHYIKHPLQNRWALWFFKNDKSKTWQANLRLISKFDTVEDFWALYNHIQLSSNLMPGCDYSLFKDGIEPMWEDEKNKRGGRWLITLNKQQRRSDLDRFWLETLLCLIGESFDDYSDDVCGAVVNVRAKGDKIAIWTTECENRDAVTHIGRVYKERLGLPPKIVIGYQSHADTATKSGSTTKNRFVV
Chain of Glucose-6-phosphate 1-dehydrogenase (P11413 whole entry): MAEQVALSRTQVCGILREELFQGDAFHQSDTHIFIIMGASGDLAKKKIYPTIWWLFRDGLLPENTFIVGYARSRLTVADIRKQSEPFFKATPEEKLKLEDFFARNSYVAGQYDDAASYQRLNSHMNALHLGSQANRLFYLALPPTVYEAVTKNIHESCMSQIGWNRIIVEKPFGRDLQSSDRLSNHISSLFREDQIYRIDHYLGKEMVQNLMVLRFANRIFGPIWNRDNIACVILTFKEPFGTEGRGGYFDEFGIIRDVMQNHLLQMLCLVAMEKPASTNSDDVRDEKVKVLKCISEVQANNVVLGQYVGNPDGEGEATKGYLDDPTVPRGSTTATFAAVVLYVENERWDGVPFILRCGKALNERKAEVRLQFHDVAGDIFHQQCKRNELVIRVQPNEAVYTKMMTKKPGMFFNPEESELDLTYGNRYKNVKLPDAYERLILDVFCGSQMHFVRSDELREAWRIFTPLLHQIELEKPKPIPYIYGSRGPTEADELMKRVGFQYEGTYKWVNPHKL
Chain of Nonstructural protein 1 (Q194T2 whole entry): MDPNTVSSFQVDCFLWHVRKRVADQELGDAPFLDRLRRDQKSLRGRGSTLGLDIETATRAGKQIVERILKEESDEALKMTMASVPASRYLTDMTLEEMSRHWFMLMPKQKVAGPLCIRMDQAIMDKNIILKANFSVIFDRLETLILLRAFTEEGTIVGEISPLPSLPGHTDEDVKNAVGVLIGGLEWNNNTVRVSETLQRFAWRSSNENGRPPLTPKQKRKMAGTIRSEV

SMILES: COC(=O)c1ccc(CSc2nnc(S)s2)o1
- EC50 [1]: 5.69 µM (active)
- IC50 [2]: > 100 µM (inactive)
- EC50 (Streptococcus): 9.6 µM (active)
- IC50 [3]: 5.99 µM (active)
- IC50 [4]: > 64 µM (inactive)
- EC50 (Streptokinase A): 5.61 µM (active)

SMILES: Cc1ccccc1N1C(=O)c2sc3nc4c(c(=O)n3c2C1=O)CCC4
- IC50 (Bcl-2-like protein 10): 54.9 µM (inactive)

SMILES: NC(=S)N=Nc1c(O)n(Cc2ccc(F)cc2)c2ccccc12
- IC50 [5]: > 20 µM (inactive)

SMILES: COc1ccc(OC)c(CNc2cnc3ccccc3c2)c1
- IC50 [6]: > 100 µM (inactive)
- IC50 [7]: > 100 µM (not active)

SMILES: CC(C)CC(C(=O)NC(C)(C)C)N(Cc1cccs1)C(=O)c1snc(C(N)=O)c1N (configuration not stated)
- IC50 [5]: > 20 µM (inactive)

SMILES: CC(C)Cn1c(S)nnc1-c1cccc(S(=O)(=O)N2CCOCC2)c1
- IC50 [2]: > 100 µM (inactive)
- IC50 [3]: 5.37 µM (active)

SMILES: CC(C)CNC(=O)c1cc(-c2cc(F)c(Cl)cc2Cl)n[nH]1
- IC50 [6]: 0.27 µM (active)
- IC50 [7]: > 10 µM (inconclusive)

SMILES: O=S(=O)(Nc1ccc2ccccc2c1)c1cc(Cl)ccc1F
- IC50 [6]: > 10 µM (inactive)
- IC50 [7]: > 10 µM (inconclusive)

SMILES: C=CCN1C=C2C(=O)C(C)(OC(=O)CCC(=O)OC)C(=O)C(Br)=C2C=C1c1ccc(OC)cc1 (configuration not stated)
- EC50 [8]: 50.2 µM (active)
- IC50 [9]: 32.6 µM (active)
- EC50 [10]: 42.8 µM (active)
- IC50 [11]: 29.9 µM (inactive)
- IC50 (Hexokinase HKDC1): 24.6 µM (inactive)

SMILES: Sc1nnc(-c2ccccn2)n1/N=C/c1c(Cl)cccc1Cl
- IC50 [2]: > 100 µM (inactive)
- IC50 [3]: 4.67 µM (active)

SMILES: C[C@@H](C(=O)Nc1nc(-c2ccccn2)cs1)N1C(=O)C2CCCCC2C1=O (some centres not stated)
- IC50 (Nonstructural protein 1): 8.38 µM (active)
- IC50 (H9c2): 8.43 µM (active)
- IC50 (Bcl-2-like protein 10): 96 µM (inactive)
